According to US20230242526A1 (Zentaur Therapeutics International Limited, priority 2020, published 2023):

Experiments:
[1] = Pharmacokinetic profiling in mouse (i.v. and i.g.); format: in vivo, male ICR mice; settings: male, ICR, plasma; for Vd: read-out: Vdss; for bioavailability: calculated by using the AUC0-t, read-out: F (bioavailability)
Experimental: (1). Kolliphor® HS 15 (formerly regarded as Solutol® HS 15) a non-ionic surfactant, was used as a solubilizer in preparing the parenteral formulations; (2). DMA (N,N-dimethylacetamide); (3). saline; and (4). Tween 80; (5) acetyl nitrile. […] To a glass flask was added 6.0 μmol of the test compound, and 0.265 mL of DMA. The glass flask was vortexed to allow the complete dissolution of the solid. Then 0.265 mL of 30% Solution HS 15 was added to the test compound solution in DMA and was vortexed to allow homogeneous mixing. Lastly, 2.12 mL of saline was added to the mixture in the glass flask. The flask was vortexed to allow homogeneous mixing. […] A clear liquid test sample iv formulation was obtained. An aliquot of 100 μL of the test sample iv formulation was placed into a 1.5 mL EP tube and was kept at 2-8° C. for future sample concentration quantification by HPLC. […] To a glass flask was added 27 μmol of the test compound and 4.047 mL of 0.5% MC with 01. % Tween 80. The flask and the mixture was vortexed followed by sonication for about 15 minutes to allow even distribution of the solids. A white suspension of the text sample was obtained. […] Ltd. Before receiving the test compound formulations, the animals were on fasting overnight. On the day of dosing, the animals were fed at 4h after the dosing. During the tests, the animals were free to drink water. Each test compound was tested in duplicate with different routes of administration: in one set of tests, mice received test compounds by iv injection route, and in the other set of tests, mice received the test compounds by IG administration. The schedules of the test for each mouse are illustrated in Table 5 below. [table] 100 μL blood sample was taken from the veins in animal eyelid. The whole blood sample was placed in anticoagulation tubes treated with EDTA-K2. The whole blood sample was centrifuged at 1500 g for 10 min. The plasma at the upper level was collected into test tubes. An aliquot of 10 μL of sample was added with 100 μL ACN which contains of Verapamil, 5 ng/mL, Glibenclamide, 50 ng/mL, Tolbutamide, 200 ng/mL and Diclofenac, 200 ng mL-1 for protein precipitation. The mixture was vortexed for 1 min, then centrifuged at 13000 rpm for 8 min. Then 70 μL of supernatant was added with 70 μL water, then vortexed for 10 min. An aliquot of 5 μL of the mixture was injected into the LC-MS/MS system. LC-MS/MS (API 4000: LC-MS-MS-001), column: […] Sample injection volume is 5 μL. Flow rate is 0.8 mL/min. The detection wavelength is set at 254 nm.

in vitro = settings: human, microsomes, pH 7.4, t1/2 human
Experimental: Human liver microsomes (cat. No. 452161), mouse liver microsomes (cat. No. 452701), were purchased from Corning.
Samples were analyzed using LC-MS/MS using a SCIEX API 4000 mass spectrometer coupled with Agilent HPLC analytical system. After separation on a ZORBAX XDB-C18 column (5 μm, 50×2.1 mm, column No. 50-282) using an acetonitrile-water gradient system, peaks were analyzed by mass spectroscopy (MS) using ESI ionization in Q1 and Q3 scan mode.
The LC and MS are all controlled by Analyst software.
The liver microsomes were incubated with 1.0 μM of the testing compound at 37° C. The incubation mixture contained 100 mM PBS buffer (pH=7.4), 3 mM MgCl2 and 1 mM NADPH. The concentration of liver microsome in the incubation mixture was 0.5 mg/mL for testing compound, and 0.2 mg/mL for MDZ and the total volume is 0.2 mL. […] Aliquots were withdrawn at time points of 0 min, 5 min and 20 min for MDZ. The reactions were terminated by transferring the aliquots to a methanol solution containing the internal standard […] for analytical quantification. The quenched samples were analyzed by LC-MS/MS. The incubations were carried out in duplicates. The metabolic stability of the testing compounds by the liver microsomes of human and mice is expressed as elimination half-life (t1/2). The results are shown as the means of duplicate determinations±SD.

[2] = Body weight in the HCC1806 xenograft study; format: in vivo, BALB/c nude mice; settings: 30 mg/kg P.O. BID; for Body weight D0 / Body weight D3 / Body weight D7 / Body weight D10 / Body weight D14 / Body weight D17 / Body weight D21: group mean; for Body weight D0: day 0; for Body weight D3: day 3; for Body weight D7: day 7; for Body weight D10: day 10; for Body weight D14: day 14; for Body weight D17: day 17; for Body weight D21: day 21
Experimental: When the average tumor volume reached 80-120 mm^3, 42 tumor-bearing mice were randomized into 7 groups (6 mice per group) according to tumor volume. The grouping day was defined as Day 0. Treatment was applied immediately after grouping animals on the same day.
The body weight of the testing animals were measured twice a week after grouping. Tumor volumes by the length and width of the tumor were measured by electric calipers and the tumor volume (V) was calculated as follows: V=(length×width^2)/2. The individual relative tumor volume (RTV) was calculated as follows: RTV=Vt/V0, where Vt was the volume on each day, and V0 was the volume at the beginning of the treatment.
Results were expressed as mean±S.E.M. Comparisons between two groups were made by corresponding test, p<0.05 were considered to be significant.

| AUC(0-t) ([1]; iv, i.v. 5 mg/kg) | C0 ([1]; iv, i.v. 5 mg/kg) | clearance ([1]; iv, i.v. 5 mg/kg) | half-life ([1]; iv, i.v. 5 mg/kg) | Vd ([1]; iv, i.v. 5 mg/kg) | AUC(0-t) ([1]; po, i.g. 30 mg/kg) | Cmax ([1]; po, i.g. 30 mg/kg) | Tmax ([1]; po, i.g. 30 mg/kg) | half-life ([1]; po, i.g. 30 mg/kg) | bioavailability ([1]; po, i.g. 30 mg/kg) | half-life at 1 μM (in vitro) | Compound | Body weight D0 [2] | Body weight D3 [2] | Body weight D7 [2] | Body weight D10 [2] | Body weight D14 [2] | Body weight D17 [2] | Body weight D21 [2] | body weight compared with G1 vehicle [2] |
| --- | --- | --- | --- | --- | --- | --- | --- | --- | --- | --- | --- | --- | --- | --- | --- | --- | --- | --- | --- |
| 1360 ng·h/mL | 5020 ng/mL | 61.2 mL/min/kg | 0.367 h | 1 L/kg | 1190 ng·h/mL | 1040 ng/mL | 0.25 h | 2.76 h | 14.6% | 33.3 h | C[C@@]1(O)CCC[C@H]1n1c(=O)c(C(F)F)cc2cnc(NC3CCN(S(C)(=O)=O)CC3)nc21 [Comp. 5, (−)-6-(difluoromethyl)-8-((1R,2R)-2-hydroxy-2-methylcyclopentyl)-2-((1-(methylsulfonyl)piperidin-4-yl)amino)pyrido[2,3-d]pyrimidin-7(8H)-one, reference compound] | 18.43 g | 18.07 g | 18.12 g | 17.82 g | 18.25 g | 18.48 g | 17.80 g | – |
| 967 ng·h/mL | 8300 ng/mL | 86.1 mL/min/kg | 0.195 h | 0.611 L/kg | 245 ng·h/mL | 211 ng/mL | 0.25 h | 2.24 h | 4.2% | 7.7 h | Cc1cc2cnc(NC3CCN(S(C)(=O)=O)CC3)nc2n([C@@H]2CCC[C@@]2(C)O)c1=O [Comp. 4, (−)-8-(2-hydroxy-2-methylcyclopentyl)-6-methyl-2-((1-(methylsulfonyl)piperidin-4-yl)amino)pyrido[2,3-d]pyrimidin-7(8H)-one, reference compound] | 18.11 g | 17.90 g | 18.56 g | 19.59 g | 19.85 g | 20.49 g | 20.80 g | significant higher on day 21 |
| 1290 ng·h/mL | 7420 ng/mL | 64.7 mL/min/kg | 0.33 h | 0.703 L/kg | 605 ng·h/mL | 522 ng/mL | 0.25 h | 1.72 h | 7.8% | 28.9 h | [2H]C([2H])([2H])c1cc2cnc(NC3CCN(S(C)(=O)=O)CC3)nc2n([C@@H]2CCC[C@@]2(C)O)c1=O [Comp. 37, (−)-8-((1R,2R)-2-hydroxy-2-methylcyclopentyl)-6-(methyl-d3)-2-((1-(methylsulfonyl)piperidin-4-yl)amino)pyrido[2,3-d]pyrimidin-7(8H)-one] | 18.25 g | 18.23 g | 18.10 g | 18.01 g | 18.80 g | 18.60 g | 18.17 g | – |
| – | – | – | – | – | – | – | – | – | – | 14.4 h | [2H]C(F)(F)c1cc2cnc(NC3CCN(S(C)(=O)=O)CC3)nc2n([C@@H]2CCC[C@@]2(C)O)c1=O [Comp. 28, (−)-6-(difluoromethyl-d)-8-((1R,2R)-2-hydroxy-2-methylcyclopentyl)-2-((1-(methylsulfonyl)piperidin-4-yl)amino)pyrido[2,3-d]pyrimidin-7(8H)-one] | 17.93 g | 17.81 g | 17.78 g | 17.66 g | 17.75 g | 17.84 g | 16.80 g | significant lower on day 17 |
